Test results: ChEMBL document CHEMBL3297657, “Synthesis and antitumor activities of novel α-aminophosphonate derivatives containing an alizarin moiety” (Eur J Med Chem, 2014)
Active and inactive are the calls of the source. No cut-off for these calls is given here.

Experiments:
[1] = tested on: KB; test: Cytotoxicity against human KB cells after 48 hrs by MTT assay; assay type: functional, cell-based
[2] = tested on: A549; test: cells; conditions: Homo sapiens, A549, 48 h
Description: Cytotoxicity against human A549 cells after 48 hrs by MTT assay

[3] = tested on: NCI-H460; test: Cytotoxicity against human NCI-H460 cells after 48 hrs by MTT assay; assay type: functional, cell-based; conditions: NCI-H460, 48 h
[4] = tested on: HUVEC; test: Cytotoxicity against HUVEC after 48 hrs by MTT assay; assay type: cell-based; conditions: Homo sapiens
[5] = tested on: HeLa; test: cells; conditions: Homo sapiens, 48 h
Description: Cytotoxicity against human HeLa cells after 48 hrs by MTT assay

[6] = tested on: HepG2; test: cells; conditions: Homo sapiens, HepG2, 48 h
Description: Cytotoxicity against human HepG2 cells after 48 hrs by MTT assay

[7] = tested on: MGC-803; test: Cytotoxicity against human MGC803 cells after 48 hrs by MTT assay; assay type: functional, cell-based; conditions: MGC-803, 48 h
[8] = tested on: HCT-116; test: cells; conditions: Homo sapiens, HCT-116, 48 h
Description: Cytotoxicity against human HCT116 cells after 48 hrs by MTT assay

[9] = tested on: CNE; test: Cytotoxicity against human CNE cells after 48 hrs by MTT assay; assay type: functional, cell-based
[10] = tested on: NCI-H460; test: Induction of apoptosis in human NCI-H460 cells assessed as early apoptotic cells at 5 to 20 uM after 24 hrs by Annexin V/propidium iodide staining-based flow cytometry relative to control; assay type: functional, cell-based

Row | SMILES | IC50 [1] [nM] | IC50 [2] [µM] | IC50 [3] [µM] | IC50 [4] [µM] | IC50 [5] [µM] | IC50 [6] [µM] | IC50 [7] [µM] | IC50 [8] [µM] | IC50 [9] [µM] | Activity [10]
1 | CCOP(=O)(OCC)C(NC(=O)COc1ccc2c(c1O)C(=O)c1ccccc1C2=O)c1cccc(C)c1 (stereo not given) | 12000 | 47 | 33.9 | > 50 | 10.6 | 28.5 | 37.9 | 16 |  | 
2 | CCOP(=O)(OCC)C(NC(=O)C(C)Oc1ccc2c(c1O)C(=O)c1ccccc1C2=O)c1ccc(C)cc1 (stereo not given) | 990 | 38 | 28.9 | > 50 | > 50 | > 50 | 27.9 | 37 | > 50 | 
3 | CCOP(=O)(OCC)C(NC(=O)C(C)Oc1ccc2c(c1O)C(=O)c1ccccc1C2=O)c1ccc(Cl)cc1 (stereo not given) | 200 | 10.7 | 5.11 | 31.8 | 12.7 | 31.8 | 25.1 | 15.6 | 48.7 | 
4 | CCOP(=O)(OCC)C(NC(=O)COc1ccc2c(c1O)C(=O)c1ccccc1C2=O)c1ccc(C)cc1 (stereo not given) | 9370 | 33.8 | 12.2 | > 50 | > 50 | > 50 | 12.6 | 13.7 |  | 
5 | CCOP(=O)(OCC)C(NC(=O)COc1ccc2c(c1O)C(=O)c1ccccc1C2=O)c1ccccc1OC (stereo not given) | 1240 | 39 | 20.8 | > 50 | > 50 | > 50 | 29.2 | 30.2 |  | 
6 | CCOP(=O)(OCC)C(NC(=O)C(C)Oc1ccc2c(c1O)C(=O)c1ccccc1C2=O)c1cccc(Br)c1 (stereo not given) | 2290 | 32.8 | 10.7 | 23.6 | 11 | 23.6 | 27.5 | 15.7 | > 50 | 
7 | CCOP(=O)(OCC)C(NC(=O)COc1ccc2c(c1O)C(=O)c1ccccc1C2=O)c1ccc(Br)cc1 (stereo not given) | 3260 | 45.1 | 46.2 | > 50 | > 50 | > 50 | 35.2 | 45.8 |  | 
8 | CCOP(=O)(OCC)C(NC(=O)C(C)Oc1ccc2c(c1O)C(=O)c1ccccc1C2=O)c1cccc(F)c1 (stereo not given) | 9120 | 35.1 | 25.9 | > 50 | > 50 | > 50 | 28.9 | 47.1 | > 50 | 
9 | CCOP(=O)(OCC)C(NC(=O)C(C)Oc1ccc2c(c1O)C(=O)c1ccccc1C2=O)c1ccc2ccccc2c1 (stereo not given) | 1210 | 25.2 | 14.1 | 38.9 | 23.6 | 38.9 | 5.6 | 23 | 49.4 | 
10 | CCOP(=O)(OCC)C(NC(=O)C(C)Oc1ccc2c(c1O)C(=O)c1ccccc1C2=O)c1ccccc1Br (stereo not given) | 130 | 11.4 | 4.11 | 24.1 | 41.6 | 24.1 | 15.1 | 7.31 | 47.3 | Active
11 | CCOP(=O)(OCC)C(NC(=O)C(C)Oc1ccc2c(c1O)C(=O)c1ccccc1C2=O)c1ccccc1Cl (stereo not given) | 140 | 10.1 | 3.8 | 19.9 | 20.9 | 19.9 | 11 | 14.8 | 43.1 | Active
12 | CCOP(=O)(OCC)C(NC(=O)COc1ccc2c(c1O)C(=O)c1ccccc1C2=O)c1ccccc1F (stereo not given) | 2600 | 37.8 | 12.9 | > 50 | > 50 | > 50 | 27.1 | 14.7 |  | 
13 | CCOP(=O)(OCC)C(NC(=O)C(C)Oc1ccc2c(c1O)C(=O)c1ccccc1C2=O)c1ccccc1 (stereo not given) | 650 | 34.6 | 8.11 | > 50 | > 50 | > 50 | 6.66 | 8.07 | > 50 | Active
14 | O=C1c2ccccc2C(=O)c2c1ccc(O)c2O [ATHRAQUINONES A] | 15600 | > 50 | > 50 | > 50 | > 100 | > 50 | 39.4 | > 50 | > 100 | 
15 | CCOP(=O)(OCC)C(NC(=O)C(C)Oc1ccc2c(c1O)C(=O)c1ccccc1C2=O)c1cccc(OC)c1 (stereo not given) | 5780 | 36 | 14.9 | > 50 | > 50 | > 50 | 27.6 | 17 | > 50 | 
16 | O=c1[nH]cc(F)c(=O)[nH]1 [FLUOROURACIL] | 1230 |  | 45.1 | 24.1 | 23.3 | 38.3 | 46.9 | 10.1 | 45.1 | 
17 | CCOP(=O)(OCC)C(NC(=O)C(C)Oc1ccc2c(c1O)C(=O)c1ccccc1C2=O)c1ccc(OC)cc1 (stereo not given) | 1000 | 33.7 | 14.3 | > 50 | 14.7 | > 50 | 22.5 | 13.7 | > 50 | 
18 | CCOP(=O)(OCC)C(NC(=O)COc1ccc2c(c1O)C(=O)c1ccccc1C2=O)c1ccc(OC)cc1 (stereo not given) | 7320 | 42.2 | 20 | > 50 | > 50 | > 50 | 36.1 | 44.9 |  | 
19 | CCOP(=O)(OCC)C(NC(=O)C(C)Oc1ccc2c(c1O)C(=O)c1ccccc1C2=O)c1cccc(C)c1 (stereo not given) | 9680 | 25.6 | 9.31 | > 50 | 17.4 | > 50 | 8.02 | 36.2 | 30.5 | Active
20 | CCOP(=O)(OCC)C(NC(=O)COc1ccc2c(c1O)C(=O)c1ccccc1C2=O)c1ccc(F)cc1 (stereo not given) | 6450 | 49 | 47.9 | > 50 | > 50 | > 50 | 30.9 | 36.3 |  | 
21 | CCOP(=O)(OCC)C(NC(=O)COc1ccc2c(c1O)C(=O)c1ccccc1C2=O)c1cccc(OC)c1 (stereo not given) | 15500 | 44.1 | 27.9 | > 50 | > 50 | > 50 | 38 | 49.8 |  | 
22 | CCOP(=O)(OCC)C(NC(=O)C(C)Oc1ccc2c(c1O)C(=O)c1ccccc1C2=O)c1ccc(Br)cc1 (stereo not given) | 260 | 30.3 | 7.83 | 22.2 | 10.9 | 22.2 | 18.5 | 12.4 | 22.2 | 
23 | CCOP(=O)(OCC)C(NC(=O)COc1ccc2c(c1O)C(=O)c1ccccc1C2=O)c1ccccc1Br (stereo not given) | 6640 | 35.8 | 12 | > 50 | > 50 | > 50 | 18.7 | 17.2 |  | 
24 | CCOP(=O)(OCC)C(NC(=O)C(C)Oc1ccc2c(c1O)C(=O)c1ccccc1C2=O)c1ccc(F)cc1 (stereo not given) | 870 | 19.4 | 8.92 | 25.3 | 34.1 | 25.3 | 22.9 | 17.9 | > 50 | 
25 | CCOP(=O)(OCC)C(NC(=O)COc1ccc2c(c1O)C(=O)c1ccccc1C2=O)c1ccccc1Cl (stereo not given) | 1550 | 38 | 21.2 | > 50 | > 50 | > 50 | 39.2 | 16.3 |  | 
26 | CCOP(=O)(OCC)C(NC(=O)C(C)Oc1ccc2c(c1O)C(=O)c1ccccc1C2=O)c1cccc(Cl)c1 (stereo not given) | 220 | 18.7 | 9.1 | 70.8 | 12.9 | 70.8 | 29 | 36.3 | > 50 | 
27 | CCOP(=O)(OCC)C(NC(=O)COc1ccc2c(c1O)C(=O)c1ccccc1C2=O)c1ccccc1 (stereo not given) | 6700 | 12.1 | 11.9 | > 50 | 18.5 | 41.4 | 13 | 17.4 |  | 
